# Reference: patent US20170071944A1, “MODULATORS OF TOLL-LIKE RECEPTORS FOR THE TREATMENT OF HIV” (Gilead Sciences, Inc., priority 2015, published 2017)
# System: HIV-infected CD4 T cells
# Experiment: PGT121 antibody-mediated killing of HIV-infected CD4 T cells, monocyte effector model
# Format: cell-based, human
# Details: monocytes from 1 subject, 11 or 33 nM, 1 day
# Excerpt: NK cells and monocytes mediate antibody-dependent cellular cytotoxicity (ADCC) and antibody-dependent cellular phagocytosis (ADCP) respectively. To assess the ability of the compound of Example 15 to enhance ADCC and ADCP, two models were developed using monocytes or PBMCs as effector cells and HIV-infected CD4 T cells as target cells. PBMCs were isolated from 3 healthy subjects' leukaphereses (AllCells, participant IDs A4593, A4596, A4606), as described above. CD4 T cells were isolated from PBMCs using negative selection magnetic beads (EasySep, StemCell Technologies). CD4 T cells were spinfected with HIV-1 isolate 92HT593 (NIH AIDS Reagent Program) and cultured for 5 days at 37° C. For the PBMC model, autologous PBMCs were cultured for 5 days with vehicle control (DMSO) or Example 15 at 100 or 1000 nM. […] Marker staining was measured by flow cytometry using a LSR Fortessa (BD Biosciences) and analyzed with FlowJo software (TreeStar). The percent killing was determined by calculating the reduction of p24+ CD4+ T cells mediated by PGT121 antibody relative to a no antibody control.
# PBMCs (FIG. 3) or monocytes (FIG. 4) were treated with DMSO or TLR8 agonist for 5 days (FIG. 3) or 1 day (FIG. 4) and then co-cultured for 1 day with autologous HIV-infected CD4 T cells−/+anti-HIV Env antibody PGT121. Reductions in % p24+ CD4+ T cells, relative to no antibody control, were measured by FACS. […]
structure (smiles),measurement,value
CCCC[C@H](CO)Nc1nc(N)nc2cccnc12 [Example 15],PGT121-mediated killing of HIV-infected CD4+ T cells compared to the DMSO control,markedly enhanced
